Data on 4 substances can be found in patent publication US20210315991A1, “COMBINATION INCLUDING A CPG-C TYPE OLIGONUCLEOTIDE AND A PD-1 ANTAGONIST FOR TREATING BREAST CANCER” (Surefire Medical, Inc. d/b/a TriSalus Life Sciences, priority 2018, published 2021).

Broadly, the EC50 is the concentration that produces a half-maximal response. High values mean a need for much substance, low ones an effect from little substance.

In the series the test system is human peripheral blood mononuclear cells (PBMCs). Briefly: IFN-α secretion by human PBMC (ELISA). The series is classed as cell-based. To be noted: for EC50: human PBMCs from healthy donors, IFN-α in supernatant by ELISA; for EC50 / IFN-α Max: 24 hours incubation; for IFN-α Max / maximum IFN-α levels induced, as compared to C69-10 and C69-11: human PBMCs; for IFN-α Max: ELISA, limit of maximal/minimal detection 13160/102 pg/ml; for maximum IFN-α levels induced, as compared to C69-10 and C69-11: 24 hours, result in words. The protocol: The activity of a candidate TLR9 agonist may be assessed in vitro by measuring interferon-alpha secretion by human peripheral blood mononuclear cells (PBMC) with an enzyme linked immunosorbent assay (ELISA). In particular, human PBMC are contacted with a series of graded doses of the candidate TLR9 agonist (and controls) for a period of about 24 hours. The EC50 value (in nM) and a max production level (in pg/mL) are then determined from a dose-response curve.
Activity of oligonucleotides (PN) was assessed in vitro by measurement of cytokine secretion by human peripheral blood mononuclear cells (PBMCs).
PBMCs were isolated from blood of healthy human donors using Ficoll-Paque. For IFN-α induction, duplicate cultures of PBMCs were incubated for 24 hours with increasing concentrations of oligonucleotides. IFN-α levels in cell culture supernatants were measured by ELISA (PBL Biomedical Laboratories, Piscataway, N.J.). The limit of maximal/minimal detection was 13160/102 pg/ml.
Background: In an ELISA, binding on a coated surface is turned into a signal by an enzyme label.

Turning to “C69-01: 5′-TCG AACGTTCGAACGTTCGAA CGTTCGAAT-3′ (SEQ ID NO: 4), CpG-C 2′-deoxyribopolynucleotide, phosphorothioate backbone (DNA TCGAACGTTCGAACGTTCGAACGTTCGAAT; DNA, all phosphorothioate, methylation of C not given here)”, the response was half-maximal at 61 nM (EC50); the “IFN-α Max” value stood at 6030 pg/mL; the “maximum IFN-α levels induced, as compared to C69-10 and C69-11” value is listed as “Higher maximum IFN-α levels”.

In the case of “C69-11: 5′-TTTTCG AACGTTCGAACGTTCGAAATT-3′ (SEQ ID NO: 24), phosphorothioate backbone (DNA TTTTCGAACGTTCGAACGTTCGAAATT; DNA, all phosphorothioate, methylation of C not given here)”, the EC50 was 65 nM and the “IFN-α Max” value stood at 1239 pg/mL.

For “C69-02: 5′-TCG AACGTTCGAACGTTCGAA CGTT-3′ (SEQ ID NO: 5), phosphorothioate backbone (DNA TCGAACGTTCGAACGTTCGAACGTT; DNA, all phosphorothioate, methylation of C not given here)”, it took 49 nM to reach a half-maximal effect (EC50); the “IFN-α Max” value is 6008 pg/mL; the “maximum IFN-α levels induced, as compared to C69-10 and C69-11” value was “Higher maximum IFN-α levels”.

As for “C69-10: 5′-TTCG AACGTTCGAACGTTCGAAT-3′ (SEQ ID NO: 23), phosphorothioate backbone (DNA TTCGAACGTTCGAACGTTCGAAT; DNA, all phosphorothioate, methylation of C not given here)”, the EC50 worked out at 58 nM and the “IFN-α Max” value was found to be 3820 pg/mL.
